# Key:
# [1] = test system: human breast cancer cell line MCF-7; experiment: SRB cytotoxicity assay, MCF-7; type: cell-based; details: MCF7, MCF-7, SRB assay, 48 h
# Protocol: (§1) Human lung cancer cell line NCI-H460 (HTB-177), human breast cancer cell line MCF-7 (HTB-2), human cervical cancer cells HeLa (CCL-2), human liver cancer cell line HepG2 (HB-8065) and normal kidney epithelial cell line (LLCPK1) were purchased from the American Type Culture Collection (Manassas, Rockville). Cells were cultured at 37°C and 5% CO2 in Eagle’s minimal essential medium supplemented with 10% (v/v) FBS (Sigma), 2 mM L-glutamine (Sigma), 20 mM HEPES (Sigma), 0.025 μg ml^−1 amphotericin B (Sigma), 100 IU ml^−1 penicillin G (Sigma) and 100 μg ml^−1 streptomycin (Sigma). Cells used in this study were between passages 4 and 20.
# (§2) The experiment was conducted as previously outlined, with certain variations. Cells were seeded at a density of 10 000 cells per well (MCF-7, Hep G2, HeLa) or 7500 cells per well (NCI-H460) in 96-well plates, grown for 24 h, and subsequently treated with compounds at varying doses for 48 h. Treated cells were fixed with cold 50% (w/v) trichloroacetic acid (Merck) solution for 1−3 h, subsequently washed and stained with 0.2% (w/v) SRB (Sigma) for 20 min. Following five washes with 1% acetic acid (Merck), the protein-bound dye was solubilized in a 10 mM Tris base solution (Promega). Optical density values were measured using a 96-well microtiter plate reader (Synergy HT, Biotek Instruments) at wavelengths of 492 and 620 nm. The growth inhibition percentage (Inh %) was determined using the formula: Inh % = (1 − [ODt/ODc]) × 100, where ODt and ODc represent the optical density values of the test and control samples, respectively. Camptothecin served as the positive control.
# [2] = test system: human cervical cancer cells HeLa; experiment: SRB cytotoxicity assay, HeLa; type: cell-based; details: 48 h
# Protocol: as §1, §2
# [3] = test system: human liver cancer cell line HepG2; experiment: SRB cytotoxicity assay, HepG2; type: cell-based; details: 48 h
# Protocol: as §1, §2
# [4] = DPPH radical scavenging assay; type: biochemical; details: read-out: SC50 (the source's name)
# Protocol: The 1,1-diphenyl−2-picrylhydrazyl (DPPH) assay is a technique employed to assess the antioxidant potential of a chemical by measuring its efficacy in scavenging free radicals. DPPH produces stable free radicals in methanol. Upon exposure to an antioxidant, DPPH experiences a colour transformation from purple to yellow, which is quantified using an ELISA reader at a wavelength of 517 nm. The experiment is performed in a 96-well plate, where a 150 µM DPPH solution in 80% methanol is combined with test samples at different concentrations. The DPPH radical scavenging activity percentage is computed using the formula SC% = 1 − [ODt/ODc] × 100 (%), where SC50 (radical scavenging concentration of 50%) is the sample concentration necessary to eliminate 50% of DPPH radicals, as ascertained from the standard calibration curve. Trolox serves as a positive control in the experiment.
# [5] = test system: normal kidney epithelial cell line (LLCPK1); experiment: SRB cytotoxicity assay, normal cells LLCPK1; type: cell-based; details: Sus scrofa, LLC-PK1
# Protocol: as §1, §2
# Bacillus subtilis = experiment: Broth microdilution MIC, B. subtilis; type: cell-based
# Protocol: The three bacteria—Escherichia coli (E. coli), methicillin-resistant Staphylococcus aureus (MRSA) and Bacillus subtilis (B. subtilis), and two fungi: Candida albicans (C. albicans) and Trichophyton mentagrophytes (T. mentagrophytes) were used in this study. The clinical isolates were obtained in 2019 from the Faculty of Biology and Biotechnology, University of Science, Vietnam National University.
# All coumarin derivatives were evaluated for in vitro antibacterial and antifungal activities, and the minimum inhibitory concentration (MIC) was ascertained in µM using the broth microdilution method. The test organisms were cultivated and cultured for 48 h at 37°C. The 2-day-old bacterial cultures were emulsified in a small volume of Muller Hinton broth (MHB) and cultured at 37°C overnight to reach the logarithmic growth phase. The turbidity of each inoculum was subsequently corrected to McFarland standard no. 0.5 by the additional incorporation of MHB, resulting in an inoculum concentration of 1.5 × 10^8 CFU ml^−1. One hundred microlitres of MHB were dispensed into all wells of the 96-well microtiter plates, excluding the first column A. Subsequently, 200 µl of the working solution for each examined chemical was allocated to column A of each plate. […] The MIC was determined as the minimal concentration of substances that inhibited the colour change.
EC50 [4] [µM],MIC (Bacillus subtilis) [µM],SMILES,IC50 [1] [µM],IC50 [2] [µM],IC50 [3] [µM],IC50 [5] [µM]
80.9,,"O=c1oc2ccccc2c(O)c1Cn1ccnc1 [2e, 3-[(1H-imidazol-1-yl)methyl]-4-hydroxy-2H-chromen-2-one]",30.4,34.2,34.2,
7.36 ± 0.18,,"O=c1oc2ccccc2c(O)c1CNc1ccc(S(=O)(=O)O)cc1 [compound 2i, 4-{[(4-Hydroxy-2-oxo−2H-chromen-3-yl)methyl]amino}benzenesulfonic acid]",85.2,80.2,75.2,
53.3,,"O=c1oc2ccccc2c(O)c1CNc1ccccc1 [compound 2j, 4-Hydroxy-3-[(phenylamino)methyl]-2H-chromen-2-one]",95.5,84.7,68.1,
72.2,,"O=c1oc2ccccc2c(O)c1CN1CCOCC1 [2g, 4-Hydroxy-3-(morpholinomethyl)-2H-chromen-2-one]",42.7,31.5,50.2,
62.5,25,"CNCc1c(O)c2ccccc2oc1=O [compound 2a, 4-Hydroxy-3-[(methylamino)methyl]-2H-chromen-2-one]",52,39.3,8.57 ± 0.42,94.6
6.12 ± 0.15,,"Cc1c(C)c2c(c(C)c1O)CCC(C)(C(=O)O)O2 (stereo not shown) [Trolox, reference compound]",,,,
59.7,,"O=C(O)c1ccc(NCc2c(O)c3ccccc3oc2=O)cc1 [2c, 4-{[(4-hydroxy-2-oxo-2H-chromen-3-yl)methyl]amino}benzoic acid]",61.4,54.9,56.5,
31.3,,"CC(C)NCc1c(O)c2ccccc2oc1=O [compound 2b, 4-Hydroxy-3-[(isopropylamino)methyl]-2H-chromen-2-one]",35.4,5.23 ± 0.12,73.2,97.3
,,"CC[C@@]1(O)C(=O)OCc2c1cc1n(c2=O)Cc2cc3ccccc3nc2-1 [camptothecin, reference compound]",3.76 ± 0.15,2.38 ± 0.102,4.28 ± 0.201,
65.3,,"CCCNCc1c(O)c2ccccc2oc1=O [2h, 4-Hydroxy-3-[(propylamino)methyl]-2H-chromen-2-one]",40.1,73.2,62.5,
45.9,75,"O=c1oc2ccccc2c(O)c1CNC1CCCC1 [compound 2f, 3-[(Cyclopentylamino)methyl]-4-hydroxy-2H-chromen-2-one]",54.2,57.3,49.7,
35.8,,"N#Cc1ccc(NCc2c(O)c3ccccc3oc2=O)cc1 [compound 2d, 4-{[(4-Hydroxy-2-oxo-2H−chromen-3-yl)methyl]amino}benzonitrile]",2.54 ± 0.12,34.1,70.2,94.8

# From PMC12520770, “Synthesis of a novel coumarin via the Mannich reaction: in vitro and in silico evaluation of anti-cancer, antimicrobial and antioxidant activities” (Royal Society Open Science, 2025)
